From ChEMBL document CHEMBL1201862, “PubChem BioAssay data set” (2004)
The source made the active and inactive calls.

Columns and labels:
[1] = target: T1, RNA-binding protein pos-1 (Caenorhabditis elegans, UniProt G5EF15); test: inhibitors of POS-1/mex-3 RNA binding, dose response, biochemical, fluorescence polarization (AID 1964);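 note: purified POS-1 fused to maltose binding protein made in E. coli; potency of compounds blocking POS-1 binding to fluorescent RNA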
T1 sequence (G5EF15 whole entry): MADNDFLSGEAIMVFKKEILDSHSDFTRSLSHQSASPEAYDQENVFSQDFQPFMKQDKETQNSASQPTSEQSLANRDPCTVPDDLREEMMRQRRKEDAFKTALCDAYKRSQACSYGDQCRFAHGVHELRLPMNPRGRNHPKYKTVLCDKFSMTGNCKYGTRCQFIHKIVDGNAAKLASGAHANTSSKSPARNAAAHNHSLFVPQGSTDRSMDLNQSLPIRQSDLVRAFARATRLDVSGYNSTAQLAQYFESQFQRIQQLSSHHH

[2] = Luminescence Cell-Based Dose Response HTS to Identify Inhibitors of 5'UTR Stem-Loop Driven Prion Protein mRNA Translation in H4 Neuroglioblastoma Cells. [Related pubchem assays: 1827 (Project Summary), 1813 (Primary HTS)]; assay type: functional
[3] = target: T2, Zinc finger protein mex-5 (Caenorhabditis elegans, UniProt Q9XUB2); test: MEX-5/TCR-2 RNA interaction inhibitors, dose response, biochemical, C. elegans, fluorescence polarization (AID 1960)
T2 sequence (Q9XUB2 whole entry): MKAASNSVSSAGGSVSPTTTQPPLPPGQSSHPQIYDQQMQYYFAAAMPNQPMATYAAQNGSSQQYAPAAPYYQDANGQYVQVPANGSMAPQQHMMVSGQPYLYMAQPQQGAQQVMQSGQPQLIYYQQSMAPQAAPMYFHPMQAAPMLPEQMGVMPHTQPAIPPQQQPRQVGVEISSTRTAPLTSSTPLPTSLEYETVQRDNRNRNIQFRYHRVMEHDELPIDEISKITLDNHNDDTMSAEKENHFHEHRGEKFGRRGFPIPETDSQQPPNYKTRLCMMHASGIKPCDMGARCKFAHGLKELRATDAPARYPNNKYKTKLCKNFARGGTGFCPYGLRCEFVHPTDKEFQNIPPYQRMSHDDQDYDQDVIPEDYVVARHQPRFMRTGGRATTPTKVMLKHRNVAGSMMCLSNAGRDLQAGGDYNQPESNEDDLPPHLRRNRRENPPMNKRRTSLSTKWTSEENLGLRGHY

[4] = inhibitors of SNCA 5'UTR-driven reporter translation, confirmation, H4 neuroglioma cells, luminescence (AID 1988); assay type: functional, cell-based
[5] = target: G-protein coupled receptor 55 (Homo sapiens, UniProt Q9Y2T6); test: GPR55 antagonists blocking LPI-driven arrestin recruitment, primary screen, imaging, U2OS, beta-arrestin-GFP, LPI agonist (AID 2013); assay type: functional;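 note: antagonist potency measured as reduced agonist-driven arrestin aggregation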
G-protein coupled receptor 55, sequence (Q9Y2T6 whole entry): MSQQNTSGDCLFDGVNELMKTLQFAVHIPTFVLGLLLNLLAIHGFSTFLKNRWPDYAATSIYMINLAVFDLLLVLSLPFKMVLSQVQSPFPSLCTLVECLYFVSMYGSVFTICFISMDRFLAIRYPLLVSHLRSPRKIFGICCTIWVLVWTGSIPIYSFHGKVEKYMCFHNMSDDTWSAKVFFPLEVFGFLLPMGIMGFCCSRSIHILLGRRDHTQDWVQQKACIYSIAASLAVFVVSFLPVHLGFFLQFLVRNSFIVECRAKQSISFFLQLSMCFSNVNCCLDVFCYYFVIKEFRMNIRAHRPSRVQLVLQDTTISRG

[6] = inhibitors of intracellular T. cruzi replication, confirmation, NIH3T3 host cells, beta-gal luminescence (AID 2044); assay type: functional, cell-based;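 note: intracellular parasites grown in NIH/3T3 mouse fibroblasts as host cells; luminescent beta-galactosidase reporter signal from transgenic T. cruzi replicating inside host cells; inhibitors lower the luminescence signal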
[7] = cytotoxicity toward NIH3T3 fibroblasts, dose response, counter-screen, cell-based, ATP luminescence, mouse fibroblasts (AID 2010); assay type: functional;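 note: cells exposed to compound for about 90 hours before reading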
[8] = target: Induced myeloid leukemia cell differentiation protein Mcl-1 (Homo sapiens, UniProt Q07820); assay type: functional
Induced myeloid leukemia cell differentiation protein Mcl-1, sequence (Q07820 whole entry): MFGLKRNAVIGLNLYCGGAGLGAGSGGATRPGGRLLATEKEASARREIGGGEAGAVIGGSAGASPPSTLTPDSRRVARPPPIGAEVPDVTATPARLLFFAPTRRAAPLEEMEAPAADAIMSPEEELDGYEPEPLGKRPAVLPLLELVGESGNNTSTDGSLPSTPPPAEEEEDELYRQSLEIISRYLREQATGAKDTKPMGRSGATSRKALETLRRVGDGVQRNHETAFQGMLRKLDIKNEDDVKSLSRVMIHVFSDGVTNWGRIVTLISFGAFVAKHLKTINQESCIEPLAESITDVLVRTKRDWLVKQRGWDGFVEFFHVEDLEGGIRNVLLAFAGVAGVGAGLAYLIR

Streptococcus = test: Group A Streptococcus viability loss, dose response, counter-screen for streptokinase expression inhibitor project, luminescence, BacTiterGlo (AID 1915); assay type: functional, organism-based;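 note: potency for reduction of bacterial viability or growth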
[9] = target: DNA dC->dU-editing enzyme APOBEC-3A (Homo sapiens, UniProt P31941); test: APOBEC3A DNA deaminase inhibitors, dose response, biochemical (AID 504722); assay type: functional
DNA dC->dU-editing enzyme APOBEC-3A, sequence (P31941 whole entry): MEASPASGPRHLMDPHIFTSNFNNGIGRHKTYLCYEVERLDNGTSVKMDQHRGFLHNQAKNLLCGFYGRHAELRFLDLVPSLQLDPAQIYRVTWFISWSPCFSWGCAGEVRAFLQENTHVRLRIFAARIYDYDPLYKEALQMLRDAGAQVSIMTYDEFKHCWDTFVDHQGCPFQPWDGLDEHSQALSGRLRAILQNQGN

[10] = target: DNA dC->dU-editing enzyme APOBEC-3G (Homo sapiens, UniProt Q9HC16); test: Dose Response confirmation of small molecule APOBEC3G DNA Deaminase Inhibitors via a fluorescence-based single-stranded DNA deaminase assay. [Related pubchem assays (depositor defined):AID493012, AID493028]; assay type: functional
DNA dC->dU-editing enzyme APOBEC-3G, sequence (Q9HC16 whole entry): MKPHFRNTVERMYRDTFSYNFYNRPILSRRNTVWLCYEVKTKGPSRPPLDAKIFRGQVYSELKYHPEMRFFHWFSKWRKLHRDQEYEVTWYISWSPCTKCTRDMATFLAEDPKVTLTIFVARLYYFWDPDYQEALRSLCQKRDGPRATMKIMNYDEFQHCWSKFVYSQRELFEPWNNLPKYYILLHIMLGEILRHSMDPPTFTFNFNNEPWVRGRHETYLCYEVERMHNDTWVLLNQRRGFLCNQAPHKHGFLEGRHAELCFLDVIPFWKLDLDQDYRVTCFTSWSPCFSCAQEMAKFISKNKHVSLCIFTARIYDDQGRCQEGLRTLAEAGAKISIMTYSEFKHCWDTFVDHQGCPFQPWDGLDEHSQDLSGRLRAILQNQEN

[11] = target: T3, Histone-lysine N-methyltransferase NSD2 (Homo sapiens, UniProt O96028); assay type: biochemical
T3 sequence (O96028 whole entry): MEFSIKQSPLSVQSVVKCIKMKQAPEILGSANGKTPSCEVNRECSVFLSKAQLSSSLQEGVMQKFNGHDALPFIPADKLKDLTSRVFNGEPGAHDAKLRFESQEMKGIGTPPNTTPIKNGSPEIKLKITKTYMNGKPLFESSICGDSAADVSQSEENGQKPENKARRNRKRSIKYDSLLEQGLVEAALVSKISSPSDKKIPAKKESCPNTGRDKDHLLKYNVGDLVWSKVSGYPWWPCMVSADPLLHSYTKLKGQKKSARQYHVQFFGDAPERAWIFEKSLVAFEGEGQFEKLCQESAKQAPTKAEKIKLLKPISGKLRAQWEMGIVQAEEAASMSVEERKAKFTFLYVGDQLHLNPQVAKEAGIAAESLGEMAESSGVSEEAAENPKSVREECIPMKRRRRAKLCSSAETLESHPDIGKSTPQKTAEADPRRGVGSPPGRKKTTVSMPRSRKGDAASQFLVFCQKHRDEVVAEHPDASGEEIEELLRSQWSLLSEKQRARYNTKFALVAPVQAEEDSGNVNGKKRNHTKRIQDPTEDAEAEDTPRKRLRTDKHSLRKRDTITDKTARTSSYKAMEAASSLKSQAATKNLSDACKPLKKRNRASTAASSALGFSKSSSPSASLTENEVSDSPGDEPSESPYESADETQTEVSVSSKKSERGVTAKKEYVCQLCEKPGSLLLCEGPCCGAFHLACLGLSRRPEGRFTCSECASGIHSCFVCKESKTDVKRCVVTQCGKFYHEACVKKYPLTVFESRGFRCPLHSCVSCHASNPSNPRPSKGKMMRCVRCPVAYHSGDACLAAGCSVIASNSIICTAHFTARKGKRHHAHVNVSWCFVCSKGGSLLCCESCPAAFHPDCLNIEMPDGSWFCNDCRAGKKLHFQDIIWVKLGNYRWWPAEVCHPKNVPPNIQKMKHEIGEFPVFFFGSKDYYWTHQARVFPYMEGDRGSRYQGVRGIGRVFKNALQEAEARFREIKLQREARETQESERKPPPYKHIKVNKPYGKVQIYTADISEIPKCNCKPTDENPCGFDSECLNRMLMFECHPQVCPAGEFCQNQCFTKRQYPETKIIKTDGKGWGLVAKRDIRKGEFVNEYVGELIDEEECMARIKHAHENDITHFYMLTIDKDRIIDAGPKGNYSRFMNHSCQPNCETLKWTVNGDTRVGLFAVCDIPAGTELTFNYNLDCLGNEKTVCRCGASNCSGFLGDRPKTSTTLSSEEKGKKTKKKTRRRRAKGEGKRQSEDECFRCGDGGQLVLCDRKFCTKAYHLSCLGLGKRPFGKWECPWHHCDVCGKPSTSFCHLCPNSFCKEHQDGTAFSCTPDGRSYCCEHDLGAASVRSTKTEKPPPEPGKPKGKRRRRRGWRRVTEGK

[12] = target: Serine/threonine-protein kinase Nek4 (Homo sapiens, UniProt P51957); assay type: functional
Serine/threonine-protein kinase Nek4, sequence (P51957 whole entry): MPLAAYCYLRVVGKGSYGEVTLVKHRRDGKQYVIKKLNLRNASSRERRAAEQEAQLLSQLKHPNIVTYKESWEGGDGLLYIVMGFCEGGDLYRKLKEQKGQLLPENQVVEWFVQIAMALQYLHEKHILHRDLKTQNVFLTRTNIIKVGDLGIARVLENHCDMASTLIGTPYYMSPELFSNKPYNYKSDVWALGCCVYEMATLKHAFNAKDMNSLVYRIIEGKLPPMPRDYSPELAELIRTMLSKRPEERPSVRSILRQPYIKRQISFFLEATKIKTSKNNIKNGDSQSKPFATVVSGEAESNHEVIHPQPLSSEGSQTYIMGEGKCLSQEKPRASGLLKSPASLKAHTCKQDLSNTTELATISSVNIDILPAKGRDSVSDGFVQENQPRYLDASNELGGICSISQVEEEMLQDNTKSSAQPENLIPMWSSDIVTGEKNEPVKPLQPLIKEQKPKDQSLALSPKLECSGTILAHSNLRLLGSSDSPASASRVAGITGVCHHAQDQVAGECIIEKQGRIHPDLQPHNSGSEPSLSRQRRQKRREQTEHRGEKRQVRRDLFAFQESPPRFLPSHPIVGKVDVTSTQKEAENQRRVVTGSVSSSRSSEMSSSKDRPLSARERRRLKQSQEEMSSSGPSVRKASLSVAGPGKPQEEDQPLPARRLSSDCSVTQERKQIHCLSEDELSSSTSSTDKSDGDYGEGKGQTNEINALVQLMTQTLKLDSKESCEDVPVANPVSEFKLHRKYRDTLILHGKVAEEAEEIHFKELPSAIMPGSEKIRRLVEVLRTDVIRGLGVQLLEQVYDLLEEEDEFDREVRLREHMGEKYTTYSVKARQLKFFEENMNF

[13] = target: Receptor tyrosine-protein kinase erbB-4 (Homo sapiens, UniProt Q15303); assay type: functional;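 note: ERBB4 member of a kinome-wide kinase profiling panel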
Receptor tyrosine-protein kinase erbB-4, sequence (Q15303 whole entry): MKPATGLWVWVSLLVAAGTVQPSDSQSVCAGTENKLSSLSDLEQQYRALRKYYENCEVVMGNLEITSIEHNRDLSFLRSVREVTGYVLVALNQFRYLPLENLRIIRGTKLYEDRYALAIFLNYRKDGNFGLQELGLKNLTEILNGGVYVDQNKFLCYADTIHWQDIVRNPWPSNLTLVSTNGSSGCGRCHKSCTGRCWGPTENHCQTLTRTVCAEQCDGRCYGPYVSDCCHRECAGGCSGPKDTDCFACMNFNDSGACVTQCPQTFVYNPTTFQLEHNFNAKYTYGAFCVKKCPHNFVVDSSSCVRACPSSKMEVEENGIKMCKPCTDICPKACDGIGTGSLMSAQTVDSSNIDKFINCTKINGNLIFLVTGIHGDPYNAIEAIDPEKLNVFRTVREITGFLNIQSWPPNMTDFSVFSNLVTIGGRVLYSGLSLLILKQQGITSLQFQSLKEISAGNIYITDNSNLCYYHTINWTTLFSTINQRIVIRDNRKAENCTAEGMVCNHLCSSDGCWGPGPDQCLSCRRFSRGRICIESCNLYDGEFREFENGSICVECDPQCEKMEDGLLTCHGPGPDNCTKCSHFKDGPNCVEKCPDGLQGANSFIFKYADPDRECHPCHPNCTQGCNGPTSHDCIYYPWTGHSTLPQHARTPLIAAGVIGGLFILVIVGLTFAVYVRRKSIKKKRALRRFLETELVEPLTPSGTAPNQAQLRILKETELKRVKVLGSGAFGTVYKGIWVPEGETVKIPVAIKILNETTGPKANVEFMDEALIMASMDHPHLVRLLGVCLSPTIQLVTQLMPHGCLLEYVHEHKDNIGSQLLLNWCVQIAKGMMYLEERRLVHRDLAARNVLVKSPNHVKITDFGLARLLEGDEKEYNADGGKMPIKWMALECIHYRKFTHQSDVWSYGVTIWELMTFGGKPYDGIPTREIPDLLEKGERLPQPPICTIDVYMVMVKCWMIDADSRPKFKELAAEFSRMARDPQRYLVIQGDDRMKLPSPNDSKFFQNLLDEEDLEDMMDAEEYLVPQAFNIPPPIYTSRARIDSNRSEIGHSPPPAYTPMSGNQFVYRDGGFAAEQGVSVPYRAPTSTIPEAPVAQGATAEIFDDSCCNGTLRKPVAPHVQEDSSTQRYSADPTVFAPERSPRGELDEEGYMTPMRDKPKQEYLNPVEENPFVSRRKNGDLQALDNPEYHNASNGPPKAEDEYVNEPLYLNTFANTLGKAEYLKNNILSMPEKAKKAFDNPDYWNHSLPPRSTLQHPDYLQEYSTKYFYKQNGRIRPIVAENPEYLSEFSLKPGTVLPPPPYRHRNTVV

Row | SMILES | EC50 [1] | EC50 [2] | EC50 [3] | EC50 [4] | IC50 [5] | EC50 [6] | EC50 [7] | IC50 [8] | EC50 (Streptococcus) | IC50 [9] | IC50 [10] | AC50 [11] | Ki [12] | Ki [13]
1 | CC(=O)N(C1=C(Cl)C(=O)c2ccccc2C1=O)C1CCCCC1 | 139 µM (active) | 20.5 µM (active) | 8.18 µM (active) | > 120 µM (not active) | 4.55 µM (active) | 1.83 µM (active) | 3.26 µM (active) | 14.5 µM (active) | > 150 µM (not active) | > 100 µM (inactive) | 7.68 µM (active) | – | – | –
2 | Oc1ccc(-c2cn3c(n2)SCC3)cc1O | 3.63 µM (active) | – | 1.77 µM (active) | – | – | – | – | 2.26 µM (active) | – | > 100 µM (inactive) | 12.6 µM (active) | 2.95 µM (active) | – | –
3 | O=C1Nc2ccc3ncsc3c2C1=CNc1ccc(S(=O)(=O)Nc2ccccn2)cc1 | – | – | – | – | – | – | – | – | – | – | – | – | 0.501 µM (active) | > 3.98 µM (inactive)
4 | Cc1ccc(NC2=C/C(=N\S(=O)(=O)c3cccs3)c3ccccc3C2=O)c(C)c1 | – | 8.59 µM (inconclusive) | – | 8.43 µM (inconclusive) | 1.87 µM (active) | 0.719 µM (active) | < 6 µM (inconclusive) | – | 3.08 µM (active) | – | – | – | – | –
5 | COc1ccc(/C=N/NC(=O)c2nn(-c3ccccc3)c(=O)c3c(N)scc23)cc1 | – | – | – | – | – | – | – | – | – | – | – | > 20 µM (inactive) | – | –
